From ChEMBL document CHEMBL1124225, “2,3-Diarylindenes and 2,3-diarylindenones: synthesis, molecular structure, photochemistry, estrogen receptor binding affinity, and comparisons with related triarylethylenes” (J Med Chem, 1988)

molecular target: Estrogen receptor (Rattus norvegicus) (UniProt P06211+Q62986); assay: Binding affinity for rat uterine estrogen receptor relative to estradiol; format: protein assay

Structure (SMILES) | RBA
Oc1ccc2c(c1)CC(c1ccccc1)=C2c1ccccc1 | 8.9%
O=C1C(c2ccc(O)cc2)=C(c2ccc(O)cc2)c2ccc(O)cc21 | 23%
Oc1ccc(C2=C(c3ccc(O)cc3)c3ccc(O)cc3C2)cc1 | 15%
Oc1ccc2c(c1)Cc1c-2c2ccccc2c2ccccc12 | 0.01%
Oc1ccc(C2=C(c3ccc(O)cc3)c3ccc(O)cc3CC2)cc1 | 140%
O=C1C(c2ccccc2)=C(c2ccccc2)c2ccc(O)cc21 | 59%
